Measurements as given in US7972848B2, “Isolation and identification of cross-reactive T cells” (Opexa Therapeutics, Inc., priority 2002, dated 2011).

Key:
[1] = molecular target: HLA-DR (DRB1*1501) (Homo sapiens, UniProt P01903+P01911); settings: cited from earlier work
[2] = system: serum IgG antibodies; experiment: Serum antibody reactivity to the peptides by ELISA; format: binding, human; settings: serum dilutions 1:50 and 1:100; MS patients compared to control subjects
Protocol: We further addressed whether the increased T cell responses to both peptides of HHV-6 (U24)1-13 and MBP93-105 were consistent with potential B cell sensitization to the peptides in MS patients as compared to healthy controls. To this end, serum specimens freshly obtained from the same MS patients and the control subjects were examined for specific antibody reactivity to the peptides by ELISA.
Antibody titers were determined in serum specimens by ELISA. Briefly, microtiter plates were coated overnight at 4° C. with the peptides at 5 μg/ml in a carbonate buffer (100 mM, pH 9.5). An irrelevant peptide and MBP41-59 were used as reference peptides. Non-specific binding sites were saturated with FBS-PBS for 1 hour and washed subsequently with PBS-T. Serum samples were prepared in serial dilutions (1:50, 1:100, 1:500) with FBS-PBS and 100 μl of each sample were added in duplicate wells. The rest of the procedure is the same as that described above.

[3] = system: peripheral blood mononuclear cells (PBMC); experiment: Estimated precursor frequency of peptide-reactive and cross-reactive T cells in PBMC (proliferation assay); format: cell-based, human; settings: for estimated frequency of T cells specific for the antigen: in PBMC, primed and tested with the same antigen; for estimated frequency of cross-reactive T cells (reactive to both peptides) primed by the peptide: primed by the labelled peptide
Protocol: The T cell responses to two synthetic peptides containing an identical core sequence of seven amino acids was measured to estimate the precursor frequency of cross-reactive T cells in PBMC. Two 13-mer peptides corresponding to residues 1-13 of HHV-6 U24 and residues 93-105 of MBP were synthesized and purified to greater than 95%. The MBP93-105 and HHV-6 (U24)1-13 peptides contain the identical core sequence of 7 amino acids with distinct flanking residues (MBP-IVTPRTPPPSQGK and HHV6-MDRPRTPPPSYSE) (SEQ ID NO: 8 and SEQ ID NO: 9, respectively).
Peripheral blood mononuclear cells (PBMC) were seeded at 3×10^5 cells per well in 96-well U-bottomed plates in the presence of the peptides of MBP93-105 or HHV-6 (U24)1-13 at 30 μg/ml or the whole MBP (40 μg/ml), respectively. A total of 24 wells were plated for each antigen. Seven days later, the cultures were tested for the reactivity to both peptides using AIM-V serum free medium (Gibco BRL, Grand Island, N.Y.) alone as a control. To this end, each culture was split into three identical aliquots and tested for the reactivity to MBP and the indicated peptides in duplicate. Two aliquots were tested for reactivity to peptide MBP93-105 and peptide HHV-6 (U24)1-13 at the same concentration of 30 μg/ml, respectively, in the presence of irradiated (6,000 rads) autologous PBMC (10^5 cells per well) as a source of antigen-presenting cells (APC). One aliquot served as a control (medium alone in the presence of APC). The reactivity of the end cultures was measured after 72 hours by proliferation assays as described in Zhang et al., “MHC restricted clonotypic depletion of human myelin basic protein by T cell vaccination,” Science 261:1451-1454 (1993), which is hereby incorporated by reference in its entirety.
According to the reactivity of the resulting T cells, they were categorized as mono-specific T cells or cross-reactive T cells. Mono-specific MBP- or HHV-6 reactive T cells were reactive only to the peptide originally used to prime the cells. Mono-specific T cells were defined as reactive to the given peptide when CPM was greater than 1,000 and exceeded CPM of the control (medium alone) and of the other peptide by at least three-fold. Cross-reactive T cells were reactive to both peptides after being originally primed with only one of the peptides. Cross-reactive T cells were defined as CPM of both peptides exceeded 1,000 and the control CPM by at least three-fold. The frequency of peptide-reactive T cells was then estimated by dividing the number of positive wells by the total number of PBMC seeded in the initial culture.

[4] = system: MBP83-99 specific and MBP93-105 specific T cell clones; experiment: Cross-reactivity of T cell responses of MBP83-99 and MBP93-105 specific T cell clones; format: cell-based, human; settings: four MBP83-99 specific and six MBP93-105 specific T cell clones; data not shown
Description: Although the T cell recognition of MBP in MS patients is relatively heterogeneous, some regions of MBP have immunodominant properties, such as the 84-102/83-99 region and the 151-170 region of MBP. The immunodominant properties of these regions may be associated with their binding affinity to HLA-DR (DRB 1*1501) preferentially expressed in the MS population. […] Although the 93-105 region of MBP homologues and the 1-13 region of HHV-6 (U24) have an overlap of 4 amino acids (PRTP) (SEQ ID NO:11) with the 83-99 immunodominant region of MBP, the PRTP sequence alone is not sufficient to form an individual T cell epitope and is unlikely to represent the immunodominant T cell epitopes. […] However, the possibility exists that the increased T cell sensitization to MBP in MS patients may be initially triggered by the HHV-6 antigen that shares the sequence homology with MBP93-105 and later spreads to other epitopes of MBP by the mechanism known as epitope spreading.

| Substance | binding affinity to DRB1*1501 / HLA-DR [1] | serum antibody titers for the peptide [2] | cross-reactive T cells primed by the peptide as share of all T cells recognizing peptide MBP93-105 ([3]; MS cohort) | estimated frequency of T cells specific for the antigen ([3]; MS patients) | frequency of T cells initially primed with the whole MBP and reacted to peptide HHV-6 (U24)1-13 ([3]; MS patients, p=0.08 vs control) | frequency of T cells initially primed with the whole MBP and reacted to peptide HHV-6 (U24)1-13 ([3]; control group) | estimated frequency of T cells specific for the antigen ([3]; healthy controls) | estimated frequency of cross-reactive T cells (reactive to both peptides) primed by the peptide ([3]; healthy controls) | cross-reactivity between T cell responses to MBP83-99 peptide and MBP93-105 peptide [4] | estimated frequency of cross-reactive T cells (reactive to both peptides) primed by the peptide ([3]; MS patients) |
| --- | --- | --- | --- | --- | --- | --- | --- | --- | --- | --- |
| 84-103: peptide corresponding to the 84-103 region of MBP (DPGSRPHLIRLFSRDAPGRE; UniProt P02686 84-103, looked up, fragment) | highest binding affinity | – | – | – | – | – | – | – | – | – |
| 144-163: peptide corresponding to the 144-163 region of MBP (HGSKYLATASTMDHARHGFL; UniProt P02686 144-163, looked up, fragment) | highest binding affinity | – | – | – | – | – | – | – | – | – |
| MDRPRTPPPSYSE (listed as Homo sapiens) [HHV-6 (U24)1-13] | – | elevated | greater than 50% | 0.7×10^−6 | 0.33×10^−6 | 0.05×10^−6 | 0.32×10^−6 | 0.17×10^−6 | – | – |
| IVTPRTPPPSQGK (listed as Homo sapiens) [MBP93-105] | does not have high binding affinity | elevated | – | 0.53×10^−6 | – | – | 0.19×10^−6 | 0.09×10^−6 | no cross-reactivity | 0.36×10^−6 |
| myelin basic protein [whole MBP] | – | – | – | 0.6×10^−6 | – | – | 0.6×10^−6 | – | – | – |
